Experimental data: patent US10167262B2, “Herbicidal substituted 3-arylpyrazoles” (FMC CORPORATION, priority 2014, dated 2019)

Test system: windgrass (Apera spica-venti)
Test: Test C postemergence greenhouse test, plant response rating 0-100
Type: in vivo
Details: 62 g ai/ha
Method in brief: (§1)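 Formulated compounds applied postemergence; plants 1- to 4-leaf stage. Evaluated visually vs. untreated controls after roughly two weeks (13–15 d) under greenhouse conditions; 100 denotes complete control.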

| SMILES | Plant response rating (0 to 100), Windgrass |
| --- | --- |
| Fc1cccc(NN=C(c2ccccc2)c2c[nH]nc2-c2cc(Cl)cc(Cl)c2)c1 [Compound 58] | 0 |

Same assay, conditions: 125 g ai/ha

| SMILES | Plant response rating (0 to 100), Windgrass |
| --- | --- |
| Fc1cccc(NN=C(c2ccccc2)c2c[nH]nc2-c2cc(Cl)cc(Cl)c2)c1 [Compound 58] | 0 |

Same assay, conditions: 250 g ai/ha, scale 0 to 100

| SMILES | Plant response rating, Windgrass |
| --- | --- |
| Fc1cccc(NN=C(c2ccccc2)c2c[nH]nc2-c2cc(Cl)cc(Cl)c2)c1 [Compound 58] | 0 |

Same assay, conditions: 500 g ai/ha, scale 0 to 100

| SMILES | Plant response rating, Windgrass |
| --- | --- |
| Fc1cccc(NN=C(c2ccccc2)c2c[nH]nc2-c2cc(Cl)cc(Cl)c2)c1 [Compound 58] | 0 |

Test system: cocklebur (common cocklebur, Xanthium strumarium)
Test: as above
Type: in vivo
Details: 62 g ai/ha
Method in brief: as §1

| SMILES | Plant response rating (0 to 100), Cocklebur |
| --- | --- |
| Fc1cccc(NN=C(c2ccccc2)c2c[nH]nc2-c2cc(Cl)cc(Cl)c2)c1 [Compound 58] | 60 |

Same assay, conditions: 125 g ai/ha

| SMILES | Plant response rating (0 to 100), Cocklebur |
| --- | --- |
| Fc1cccc(NN=C(c2ccccc2)c2c[nH]nc2-c2cc(Cl)cc(Cl)c2)c1 [Compound 58] | 75 |

Same assay, conditions: 250 g ai/ha, scale 0 to 100

| SMILES | Plant response rating, Cocklebur |
| --- | --- |
| Fc1cccc(NN=C(c2ccccc2)c2c[nH]nc2-c2cc(Cl)cc(Cl)c2)c1 [Compound 58] | 80 |

Same assay, conditions: 500 g ai/ha, scale 0 to 100

| SMILES | Plant response rating, Cocklebur |
| --- | --- |
| Fc1cccc(NN=C(c2ccccc2)c2c[nH]nc2-c2cc(Cl)cc(Cl)c2)c1 [Compound 58] | 95 |

Test system: green foxtail (Setaria viridis)
Test: as above
Type: in vivo
Details: 62 g ai/ha
Method in brief: as §1

| SMILES | Plant response rating (0 to 100), Foxtail, Green |
| --- | --- |
| Fc1cccc(NN=C(c2ccccc2)c2c[nH]nc2-c2cc(Cl)cc(Cl)c2)c1 [Compound 58] | 0 |

Same assay, conditions: 125 g ai/ha

| SMILES | Plant response rating (0 to 100), Foxtail, Green |
| --- | --- |
| Fc1cccc(NN=C(c2ccccc2)c2c[nH]nc2-c2cc(Cl)cc(Cl)c2)c1 [Compound 58] | 0 |

Same assay, conditions: 250 g ai/ha, scale 0 to 100

| SMILES | Plant response rating, Foxtail, Green |
| --- | --- |
| Fc1cccc(NN=C(c2ccccc2)c2c[nH]nc2-c2cc(Cl)cc(Cl)c2)c1 [Compound 58] | 0 |

Same assay, conditions: 500 g ai/ha, scale 0 to 100

| SMILES | Plant response rating, Foxtail, Green |
| --- | --- |
| Fc1cccc(NN=C(c2ccccc2)c2c[nH]nc2-c2cc(Cl)cc(Cl)c2)c1 [Compound 58] | 30 |

Test system: woolly cupgrass (Eriochloa villosa)
Test: as above
Type: in vivo
Details: 62 g ai/ha
Method in brief: as §1

| SMILES | Plant response rating (0 to 100), Cupgrass, Woolly |
| --- | --- |
| Fc1cccc(NN=C(c2ccccc2)c2c[nH]nc2-c2cc(Cl)cc(Cl)c2)c1 [Compound 58] | 0 |

Same assay, conditions: 125 g ai/ha

| SMILES | Plant response rating (0 to 100), Cupgrass, Woolly |
| --- | --- |
| Fc1cccc(NN=C(c2ccccc2)c2c[nH]nc2-c2cc(Cl)cc(Cl)c2)c1 [Compound 58] | 0 |

Same assay, conditions: 250 g ai/ha, scale 0 to 100

| SMILES | Plant response rating, Cupgrass, Woolly |
| --- | --- |
| Fc1cccc(NN=C(c2ccccc2)c2c[nH]nc2-c2cc(Cl)cc(Cl)c2)c1 [Compound 58] | 0 |

Same assay, conditions: 500 g ai/ha, scale 0 to 100

| SMILES | Plant response rating, Cupgrass, Woolly |
| --- | --- |
| Fc1cccc(NN=C(c2ccccc2)c2c[nH]nc2-c2cc(Cl)cc(Cl)c2)c1 [Compound 58] | 0 |

Test system: downy bromegrass (Bromus tectorum)
Test: as above
Type: in vivo
Details: 62 g ai/ha
Method in brief: as §1

| SMILES | Plant response rating (0 to 100), Bromegrass, Downy |
| --- | --- |
| Fc1cccc(NN=C(c2ccccc2)c2c[nH]nc2-c2cc(Cl)cc(Cl)c2)c1 [Compound 58] | 0 |

Same assay, conditions: 125 g ai/ha

| SMILES | Plant response rating (0 to 100), Bromegrass, Downy |
| --- | --- |
| Fc1cccc(NN=C(c2ccccc2)c2c[nH]nc2-c2cc(Cl)cc(Cl)c2)c1 [Compound 58] | 0 |

Same assay, conditions: 250 g ai/ha, scale 0 to 100

| SMILES | Plant response rating, Bromegrass, Downy |
| --- | --- |
| Fc1cccc(NN=C(c2ccccc2)c2c[nH]nc2-c2cc(Cl)cc(Cl)c2)c1 [Compound 58] | 0 |

Same assay, conditions: 500 g ai/ha, scale 0 to 100

| SMILES | Plant response rating, Bromegrass, Downy |
| --- | --- |
| Fc1cccc(NN=C(c2ccccc2)c2c[nH]nc2-c2cc(Cl)cc(Cl)c2)c1 [Compound 58] | 0 |

Test system: deadnettle (henbit deadnettle, Lamium amplexicaule)
Test: as above
Type: in vivo
Details: 62 g ai/ha
Method in brief: as §1

| SMILES | Plant response rating (0 to 100), Deadnettle |
| --- | --- |
| Fc1cccc(NN=C(c2ccccc2)c2c[nH]nc2-c2cc(Cl)cc(Cl)c2)c1 [Compound 58] | 0 |

Same assay, conditions: 125 g ai/ha

| SMILES | Plant response rating (0 to 100), Deadnettle |
| --- | --- |
| Fc1cccc(NN=C(c2ccccc2)c2c[nH]nc2-c2cc(Cl)cc(Cl)c2)c1 [Compound 58] | 0 |

Same assay, conditions: 250 g ai/ha, scale 0 to 100

| SMILES | Plant response rating, Deadnettle |
| --- | --- |
| Fc1cccc(NN=C(c2ccccc2)c2c[nH]nc2-c2cc(Cl)cc(Cl)c2)c1 [Compound 58] | 0 |

Same assay, conditions: 500 g ai/ha, scale 0 to 100

| SMILES | Plant response rating, Deadnettle |
| --- | --- |
| Fc1cccc(NN=C(c2ccccc2)c2c[nH]nc2-c2cc(Cl)cc(Cl)c2)c1 [Compound 58] | 0 |

Test system: canarygrass (Phalaris minor)
Test: as above
Type: in vivo
Details: 62 g ai/ha
Method in brief: as §1

| SMILES | Plant response rating (0 to 100), Canarygrass |
| --- | --- |
| Fc1cccc(NN=C(c2ccccc2)c2c[nH]nc2-c2cc(Cl)cc(Cl)c2)c1 [Compound 58] | 0 |

Same assay, conditions: 125 g ai/ha

| SMILES | Plant response rating (0 to 100), Canarygrass |
| --- | --- |
| Fc1cccc(NN=C(c2ccccc2)c2c[nH]nc2-c2cc(Cl)cc(Cl)c2)c1 [Compound 58] | 0 |

Same assay, conditions: 250 g ai/ha, scale 0 to 100

| SMILES | Plant response rating, Canarygrass |
| --- | --- |
| Fc1cccc(NN=C(c2ccccc2)c2c[nH]nc2-c2cc(Cl)cc(Cl)c2)c1 [Compound 58] | 0 |

Same assay, conditions: 500 g ai/ha, scale 0 to 100

| SMILES | Plant response rating, Canarygrass |
| --- | --- |
| Fc1cccc(NN=C(c2ccccc2)c2c[nH]nc2-c2cc(Cl)cc(Cl)c2)c1 [Compound 58] | 0 |

Test system: winter barley (Hordeum vulgare)
Test: as above
Type: in vivo
Details: 62 g ai/ha
Method in brief: as §1

| SMILES | Plant response rating (0 to 100), Barley |
| --- | --- |
| Fc1cccc(NN=C(c2ccccc2)c2c[nH]nc2-c2cc(Cl)cc(Cl)c2)c1 [Compound 58] | 0 |

Same assay, conditions: 125 g ai/ha

| SMILES | Plant response rating (0 to 100), Barley |
| --- | --- |
| Fc1cccc(NN=C(c2ccccc2)c2c[nH]nc2-c2cc(Cl)cc(Cl)c2)c1 [Compound 58] | 0 |

Same assay, conditions: 250 g ai/ha, scale 0 to 100

| SMILES | Plant response rating, Barley |
| --- | --- |
| Fc1cccc(NN=C(c2ccccc2)c2c[nH]nc2-c2cc(Cl)cc(Cl)c2)c1 [Compound 58] | 0 |

Same assay, conditions: 500 g ai/ha, scale 0 to 100

| SMILES | Plant response rating, Barley |
| --- | --- |
| Fc1cccc(NN=C(c2ccccc2)c2c[nH]nc2-c2cc(Cl)cc(Cl)c2)c1 [Compound 58] | 0 |

Test system: surinam grass (Brachiaria decumbens)
Test: as above
Type: in vivo
Details: 62 g ai/ha
Method in brief: as §1

| SMILES | Plant response rating (0 to 100), Surinam Grass |
| --- | --- |
| Fc1cccc(NN=C(c2ccccc2)c2c[nH]nc2-c2cc(Cl)cc(Cl)c2)c1 [Compound 58] | 0 |

Same assay, conditions: 125 g ai/ha

| SMILES | Plant response rating (0 to 100), Surinam Grass |
| --- | --- |
| Fc1cccc(NN=C(c2ccccc2)c2c[nH]nc2-c2cc(Cl)cc(Cl)c2)c1 [Compound 58] | 0 |

Same assay, conditions: 250 g ai/ha, scale 0 to 100

| SMILES | Plant response rating, Surinam Grass |
| --- | --- |
| Fc1cccc(NN=C(c2ccccc2)c2c[nH]nc2-c2cc(Cl)cc(Cl)c2)c1 [Compound 58] | 0 |

Same assay, conditions: 500 g ai/ha, scale 0 to 100

| SMILES | Plant response rating, Surinam Grass |
| --- | --- |
| Fc1cccc(NN=C(c2ccccc2)c2c[nH]nc2-c2cc(Cl)cc(Cl)c2)c1 [Compound 58] | 0 |

Test system: sedge, umbrella (small-flower umbrella sedge, Cyperus difformis)
Test: Test B flooded paddy test, plant response rating 0-100
Type: in vivo
Details: Flood, 250 g ai/ha; scale 0 to 100 (0 no effect, 100 complete control); 13 to 15 days
Method in brief: (§2)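 Test compounds are applied straight into paddy water held 3 cm above the soil surface, with that flood maintained for the whole test. After 13 to 15 days in the greenhouse, each species is scored visually relative to controls.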

| SMILES | Plant response rating, Sedge, Umbrella |
| --- | --- |
| Fc1cccc(NN=C(c2ccccc2)c2c[nH]nc2-c2cc(Cl)cc(Cl)c2)c1 [Compound 58] | 0 |

Test system: rice (Oryza sativa)
Test: as above
Type: in vivo
Details: Flood, 250 g ai/ha; scale 0 to 100 (0 no effect, 100 complete control); 13 to 15 days
Method in brief: as §2

| SMILES | Plant response rating, Rice |
| --- | --- |
| Fc1cccc(NN=C(c2ccccc2)c2c[nH]nc2-c2cc(Cl)cc(Cl)c2)c1 [Compound 58] | 0 |

Test system: barnyardgrass (Echinochloa crus-galli)
Test: as above
Type: in vivo
Details: Flood, 250 g ai/ha; scale 0 to 100 (0 no effect, 100 complete control); 13 to 15 days
Method in brief: as §2

| SMILES | Plant response rating, Barnyardgrass |
| --- | --- |
| Fc1cccc(NN=C(c2ccccc2)c2c[nH]nc2-c2cc(Cl)cc(Cl)c2)c1 [Compound 58] | 0 |

Test system: ducksalad (Heteranthera limosa)
Test: as above
Type: in vivo
Details: Flood, 250 g ai/ha; scale 0 to 100 (0 no effect, 100 complete control); 13 to 15 days
Method in brief: as §2

| SMILES | Plant response rating, Ducksalad |
| --- | --- |
| Fc1cccc(NN=C(c2ccccc2)c2c[nH]nc2-c2cc(Cl)cc(Cl)c2)c1 [Compound 58] | 0 |
